According to ChEMBL document CHEMBL1201861, “Genomics of Drug Sensitity in Cancer screening data, Wellcome Trust Sanger Institute”:

How the values were obtained:
Experiment in all cases: cells
D-542MG = type: functional, cell-based, Homo sapiens; conditions: Homo sapiens, D-542MG
Description: SANGER: Inhibition of human D-542MG cell growth in a cell viability assay.

DEL = type: functional, cell-based; conditions: Homo sapiens;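 further: growth inhibition of the human DEL cell line, read out with a cell viability assay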
Description: SANGER: Inhibition of human DEL cell growth in a cell viability assay.

HT-144 = type: functional, cell-based, Homo sapiens; conditions: Homo sapiens, HT-144
Description: SANGER: Inhibition of human HT-144 cell growth in a cell viability assay.

IST-MEL1 = type: functional, cell-based, Homo sapiens; conditions: Homo sapiens, IST-MEL1;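 further: growth inhibition of the cell line, read out with a cell viability assay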
Description: SANGER: Inhibition of human IST-MEL1 cell growth in a cell viability assay.

IST-SL1 = type: functional, cell-based, Homo sapiens; conditions: Homo sapiens, IST-SL1;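 further: growth inhibition of human IST-SL1 cells, read out with a cell viability assay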
Description: SANGER: Inhibition of human IST-SL1 cell growth in a cell viability assay.

JVM-2 = type: functional, cell-based; conditions: Homo sapiens;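 further: growth inhibition of JVM-2 cells determined by a cell viability assay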
Description: SANGER: Inhibition of human JVM-2 cell growth in a cell viability assay.

KARPAS-299 = type: functional, cell-based; conditions: Homo sapiens
Description: SANGER: Inhibition of human KARPAS-299 cell growth in a cell viability assay.

KGN = type: functional, cell-based, Homo sapiens; conditions: Homo sapiens, KGN;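 further: growth inhibition of KGN cells, read out with a cell viability assay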
KMOE-2 = type: functional, cell-based; conditions: Homo sapiens;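 further: growth inhibition of human KMOE-2 cells, read out with a cell viability assay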
Description: SANGER: Inhibition of human KMOE-2 cell growth in a cell viability assay.

LC-2-ad = type: functional, cell-based, Homo sapiens; conditions: Homo sapiens, LC-2-ad;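 further: growth inhibition of human LC-2-ad cells, read out with a cell viability assay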
Description: SANGER: Inhibition of human LC-2-ad cell growth in a cell viability assay.

LOX IMVI = type: functional, cell-based; conditions: Homo sapiens
Description: SANGER: Inhibition of human LOXIMVI cell growth in a cell viability assay.

LS-1034 = type: functional, cell-based, Homo sapiens; conditions: Homo sapiens, LS-1034
Description: SANGER: Inhibition of human LS-1034 cell growth in a cell viability assay.

LU-134-A = type: functional, cell-based; conditions: Homo sapiens
Description: SANGER: Inhibition of human LU-134-A cell growth in a cell viability assay.

MC116 = type: functional, cell-based; conditions: Homo sapiens;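 further: growth inhibition of MC116 cells, read out with a cell viability assay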
Description: SANGER: Inhibition of human MC116 cell growth in a cell viability assay.

MN-60 = type: functional, cell-based; conditions: Homo sapiens;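 further: growth inhibition of the MN-60 cell line, determined with a cell viability assay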
Description: SANGER: Inhibition of human MN-60 cell growth in a cell viability assay.

MPP-89 = type: functional, cell-based, Homo sapiens; conditions: Homo sapiens, MPP-89;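 further: growth inhibition of human MPP-89 cells, read out with a cell viability assay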
Description: SANGER: Inhibition of human MPP-89 cell growth in a cell viability assay.

MZ1-PC = type: functional, cell-based, Homo sapiens; conditions: Homo sapiens, MZ1-PC;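 further: cell viability assay measuring growth inhibition of human MZ1-PC cells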
Description: SANGER: Inhibition of human MZ1-PC cell growth in a cell viability assay.

MZ2-MEL = type: functional, cell-based, Homo sapiens; conditions: Homo sapiens, MZ2-MEL;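 further: growth inhibition of MZ2-MEL cells read out with a cell viability assay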
Description: SANGER: Inhibition of human MZ2-MEL cell growth in a cell viability assay.

NCI-H23 = type: functional, cell-based, Homo sapiens; conditions: Homo sapiens, NCI-H23;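 further: cell viability assay measuring growth inhibition of NCI-H23 cells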
NTERA-2-cl-D1 = type: functional, cell-based, Homo sapiens; conditions: Homo sapiens, NTERA-2-cl-D1;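 further: inhibition of cell growth, measured with a cell viability assay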
Description: SANGER: Inhibition of human NTERA-S-cl-D1 cell growth in a cell viability assay.

SH-4 = type: functional, cell-based, Homo sapiens; conditions: Homo sapiens, SH-4;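 further: growth inhibition of SH-4 cells, read out with a cell viability assay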
Description: SANGER: Inhibition of human SH-4 cell growth in a cell viability assay.

SK-MEL-1 = type: functional, cell-based; conditions: Homo sapiens;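 further: growth inhibition of human SK-MEL-1 cells, read out by a cell viability assay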
Description: SANGER: Inhibition of human SK-MEL-1 cell growth in a cell viability assay.

SK-MEL-2 = type: functional, cell-based, Homo sapiens; conditions: Homo sapiens, SK-MEL-2;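 further: growth inhibition of human SK-MEL-2 cells measured with a cell viability assay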
Description: SANGER: Inhibition of human SK-MEL-2 cell growth in a cell viability assay.

TE-12 = type: functional, cell-based; conditions: Homo sapiens;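 further: growth inhibition of TE-12 cells, read out by a cell viability assay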
Description: SANGER: Inhibition of human TE-12 cell growth in a cell viability assay.

COR-L23 = type: functional, cell-based, Homo sapiens; conditions: Homo sapiens, COR-L23;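 further: cell viability assay measuring how strongly compounds suppress growth of COR-L23 cells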
Description: SANGER: Inhibition of human COR-L23 cell growth in a cell viability assay.

Capan-2 = type: functional, cell-based, Homo sapiens; conditions: Homo sapiens, Capan-2;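 further: Capan-2 cell growth inhibition, read out with a viability assay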
Description: SANGER: Inhibition of human Capan-2 cell growth in a cell viability assay.

DBTRG-05MG = type: functional, cell-based, Homo sapiens; conditions: Homo sapiens, DBTRG-05MG;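 further: cell viability assay measuring growth inhibition of human DBTRG-05MG cells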
Description: SANGER: Inhibition of human DBTRG-05MG cell growth in a cell viability assay.

FTC-133 = type: functional, cell-based, Homo sapiens; conditions: Homo sapiens, FTC-133
GMS-10 = type: functional, cell-based, Homo sapiens; conditions: Homo sapiens, GMS-10;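 further: growth inhibition of GMS-10 cells, read out as cell viability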
Description: SANGER: Inhibition of human GMS-10 cell growth in a cell viability assay.

HT-29 = type: functional, cell-based, Homo sapiens; conditions: Homo sapiens, HT-29;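 further: growth inhibition of human HT-29 cells, read out by a cell viability assay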
Description: SANGER: Inhibition of human HT-29 cell growth in a cell viability assay.

HT-3 = type: functional, cell-based, Homo sapiens; conditions: Homo sapiens, HT-3;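 further: growth inhibition measured with a cell viability readout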
Description: SANGER: Inhibition of human HT-3 cell growth in a cell viability assay.

HuP-T3 = type: functional, cell-based, Homo sapiens; conditions: Homo sapiens, HuP-T3;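 further: HuP-T3 cell growth inhibition, read out with a cell viability assay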
Description: SANGER: Inhibition of human HuP-T3 cell growth in a cell viability assay.

KOSC-2 = type: functional, cell-based, Homo sapiens; conditions: Homo sapiens, KOSC-2;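 further: growth inhibition of KOSC-2 cells, read out by a cell viability assay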
Description: SANGER: Inhibition of human KOSC-2 cell growth in a cell viability assay.

KYSE-510 = type: functional, cell-based, Homo sapiens; conditions: Homo sapiens, KYSE-510;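 further: cell viability readout used to measure how strongly growth of the cell line is suppressed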
Description: SANGER: Inhibition of human KYSE-510 cell growth in a cell viability assay.

KYSE-70 cell line = type: functional, cell-based, Homo sapiens; conditions: Homo sapiens, KYSE-70;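 further: cell viability assay read-out, with IC50 expressing suppression of KYSE-70 cell growth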
Description: SANGER: Inhibition of human KYSE-70 cell growth in a cell viability assay.

LCLC-103H cell line = type: functional, cell-based, Homo sapiens; conditions: Homo sapiens, LCLC-103H
Description: SANGER: Inhibition of human LCLC-103H cell growth in a cell viability assay.

NCI-H1623 = type: functional, cell-based, Homo sapiens; conditions: Homo sapiens, NCI-H1623;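 further: cell viability assay used as the read-out for growth inhibition of NCI-H1623 cells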
Description: SANGER: Inhibition of human NCI-H1623 cell growth in a cell viability assay.

NCI-H2228 = type: functional, cell-based, Homo sapiens; conditions: Homo sapiens, NCI-H2228;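 further: growth inhibition of human NCI-H2228 cells, read out by a cell viability assay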
Description: SANGER: Inhibition of human NCI-H2228 cell growth in a cell viability assay.

NCI-H650 = type: functional, cell-based, Homo sapiens; conditions: Homo sapiens, NCI-H650;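 further: growth inhibition of NCI-H650 cells, read out by a viability assay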
Description: SANGER: Inhibition of human NCI-H650 cell growth in a cell viability assay.

OAW-42 = type: functional, cell-based, Homo sapiens; conditions: Homo sapiens, OAW-42;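 further: growth inhibition of OAW-42 cells, read out with a cell viability assay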
Description: SANGER: Inhibition of human OAW-42 cell growth in a cell viability assay.

OE33 = type: functional, cell-based, Homo sapiens; conditions: Homo sapiens, OE33;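 further: growth inhibition of human OE33 cells, measured by a cell viability assay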
Description: SANGER: Inhibition of human OE33 cell growth in a cell viability assay.

PANC-08-13 = type: functional, cell-based, Homo sapiens; conditions: Homo sapiens, PANC-08-13;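 further: cell growth inhibition, measured with a cell viability assay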
Description: SANGER: Inhibition of human PANC-08-13 cell growth in a cell viability assay.

SK-N-AS = type: functional, cell-based, Homo sapiens; conditions: Homo sapiens, SK-N-AS;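 further: growth inhibition of human SK-N-AS cells, measured with a cell viability assay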
Description: SANGER: Inhibition of human SK-N-AS cell growth in a cell viability assay.

SW1710 = type: functional, cell-based, Homo sapiens; conditions: Homo sapiens, SW1710;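 further: growth inhibition of SW1710 cells, determined with a cell viability assay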
Description: SANGER: Inhibition of human SW1710 cell growth in a cell viability assay.

SW837 = type: functional, cell-based, Homo sapiens; conditions: Homo sapiens, SW837;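 further: growth inhibition of SW837 cells, determined with a cell viability assay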
Description: SANGER: Inhibition of human SW837 cell growth in a cell viability assay.

BHT-101 = type: functional, cell-based, Homo sapiens; conditions: Homo sapiens, BHT-101
Description: SANGER: Inhibition of human BHT-101 cell growth in a cell viability assay.

CAL-62 = type: functional, cell-based, Homo sapiens; conditions: Homo sapiens, CAL-62;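 further: growth inhibition of CAL-62 cells, read out with a cell viability assay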
Description: SANGER: Inhibition of human CAL-62 cell growth in a cell viability assay.

TE-11 = type: functional, cell-based, Homo sapiens; conditions: Homo sapiens, TE-11;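 further: growth inhibition of human TE-11 cells, read out by a cell viability assay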
Description: SANGER: Inhibition of human TE-11 cell growth in a cell viability assay.

UO-31 = type: functional, cell-based; conditions: Homo sapiens;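 further: cell viability assay measuring inhibition of cell growth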
Description: SANGER: Inhibition of human U031 cell growth in a cell viability assay.

U-251 = type: functional, cell-based, Homo sapiens; conditions: Homo sapiens, U-251;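 further: growth inhibition of human U-251 cells, read out through a cell viability assay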
Description: SANGER: Inhibition of human U251 cell growth in a cell viability assay.

CS(=O)(=O)CCNCc1ccc(-c2ccc3ncnc(Nc4ccc(OCc5cccc(F)c5)c(Cl)c4)c3c2)o1 [LAPATINIB]
IC50 (D-542MG): > 2000 nM | IC50 (DEL): > 2000 nM | IC50 (HT-144): > 2000 nM | IC50 (IST-MEL1): > 2000 nM | IC50 (IST-SL1): > 2000 nM | IC50 (JVM-2): > 2000 nM | IC50 (KARPAS-299): > 2000 nM | IC50 (KGN): > 2000 nM | IC50 (KMOE-2): > 2000 nM | IC50 (LC-2-ad): > 2000 nM | IC50 (LOX IMVI): > 2000 nM | IC50 (LS-1034): > 2000 nM | IC50 (LU-134-A): > 2000 nM | IC50 (MC116): > 2000 nM | IC50 (MN-60): > 2000 nM | IC50 (MPP-89): > 2000 nM | IC50 (MZ1-PC): > 2000 nM | IC50 (MZ2-MEL): > 2000 nM | IC50 (NCI-H23): > 2000 nM | IC50 (NTERA-2-cl-D1): > 2000 nM | IC50 (SH-4): > 2000 nM | IC50 (SK-MEL-1): > 2000 nM | IC50 (SK-MEL-2): > 2000 nM | IC50 (TE-12): 491 nM

CN(Cc1cnc2nc(N)nc(N)c2n1)c1ccc(C(=O)N[C@@H](CCC(=O)O)C(=O)O)cc1 [METHOTREXATE]
IC50 (COR-L23): 122 nM | IC50 (Capan-2): > 200 nM | IC50 (DBTRG-05MG): 171 nM | IC50 (DEL): 3.12 nM | IC50 (FTC-133): > 200 nM | IC50 (GMS-10): > 200 nM | IC50 (HT-144): > 200 nM | IC50 (HT-29): 153 nM | IC50 (HT-3): 69.4 nM | IC50 (HuP-T3): > 200 nM | IC50 (IST-MEL1): 126 nM | IC50 (IST-SL1): > 200 nM | IC50 (JVM-2): > 200 nM | IC50 (KARPAS-299): > 200 nM | IC50 (KGN): 150 nM | IC50 (KMOE-2): 97.4 nM | IC50 (KOSC-2): > 200 nM | IC50 (KYSE-510): 91.7 nM | IC50 (KYSE-70 cell line): > 200 nM | IC50 (LC-2-ad): > 200 nM | IC50 (LCLC-103H cell line): 174 nM | IC50 (LOX IMVI): > 200 nM | IC50 (LS-1034): > 200 nM | IC50 (LU-134-A): 88.7 nM | IC50 (MC116): 60.6 nM | IC50 (MN-60): 65.7 nM | IC50 (MPP-89): > 200 nM | IC50 (MZ1-PC): > 200 nM | IC50 (MZ2-MEL): > 200 nM | IC50 (NCI-H1623): > 200 nM | IC50 (NCI-H2228): > 200 nM | IC50 (NCI-H23): > 200 nM | IC50 (NCI-H650): > 200 nM | IC50 (NTERA-2-cl-D1): > 200 nM | IC50 (OAW-42): > 200 nM | IC50 (OE33): > 200 nM | IC50 (PANC-08-13): > 200 nM | IC50 (SH-4): > 200 nM | IC50 (SK-MEL-1): > 200 nM | IC50 (SK-MEL-2): > 200 nM | IC50 (SK-N-AS): > 200 nM | IC50 (SW1710): > 200 nM | IC50 (SW837): > 200 nM | IC50 (BHT-101): > 200 nM | IC50 (CAL-62): > 200 nM | IC50 (TE-11): > 200 nM | IC50 (TE-12): > 200 nM | IC50 (UO-31): > 200 nM | IC50 (U-251): > 200 nM

CCc1nc(N)nc(N)c1-c1ccc(Cl)cc1 [PYRIMETHAMINE]
IC50 (D-542MG): > 20000 nM | IC50 (DEL): 3930 nM | IC50 (HT-144): 6800 nM | IC50 (IST-MEL1): 4330 nM | IC50 (IST-SL1): 16100 nM | IC50 (JVM-2): > 20000 nM | IC50 (KARPAS-299): > 20000 nM | IC50 (KGN): > 20000 nM | IC50 (KMOE-2): > 20000 nM | IC50 (LC-2-ad): > 20000 nM | IC50 (LOX IMVI): 13000 nM | IC50 (LS-1034): 18300 nM | IC50 (LU-134-A): > 20000 nM | IC50 (MC116): 17900 nM | IC50 (MN-60): > 20000 nM | IC50 (MPP-89): > 20000 nM | IC50 (MZ1-PC): > 20000 nM | IC50 (MZ2-MEL): > 20000 nM | IC50 (NCI-H23): 6540 nM | IC50 (NTERA-2-cl-D1): > 20000 nM | IC50 (SH-4): > 20000 nM | IC50 (SK-MEL-1): > 20000 nM | IC50 (SK-MEL-2): > 20000 nM | IC50 (TE-12): > 20000 nM

O=C(/C=C/c1ccccc1)NC(NC(=S)Nc1cccc2cccnc12)C(Cl)(Cl)Cl (stereo not given) [SALUBRINAL]
IC50 (D-542MG): 13400 nM | IC50 (DEL): > 16000 nM | IC50 (HT-144): > 16000 nM | IC50 (IST-MEL1): > 16000 nM | IC50 (IST-SL1): > 16000 nM | IC50 (JVM-2): > 16000 nM | IC50 (KARPAS-299): > 16000 nM | IC50 (KGN): > 16000 nM | IC50 (KMOE-2): 13100 nM | IC50 (LC-2-ad): > 16000 nM | IC50 (LOX IMVI): > 16000 nM | IC50 (LS-1034): > 16000 nM | IC50 (LU-134-A): > 16000 nM | IC50 (MC116): 11200 nM | IC50 (MN-60): > 16000 nM | IC50 (MPP-89): > 16000 nM | IC50 (MZ1-PC): > 16000 nM | IC50 (MZ2-MEL): > 16000 nM | IC50 (NCI-H23): > 16000 nM | IC50 (NTERA-2-cl-D1): 12900 nM | IC50 (SH-4): > 16000 nM | IC50 (SK-MEL-1): > 16000 nM | IC50 (SK-MEL-2): > 16000 nM | IC50 (TE-12): 11300 nM

CNC(=O)c1cc(Oc2ccc(NC(=O)Nc3ccc(Cl)c(C(F)(F)F)c3)cc2)ccn1 [SORAFENIB]
IC50 (D-542MG): > 4000 nM | IC50 (DEL): > 4000 nM | IC50 (HT-144): > 4000 nM | IC50 (IST-MEL1): > 4000 nM | IC50 (IST-SL1): > 4000 nM | IC50 (JVM-2): > 4000 nM | IC50 (KARPAS-299): > 4000 nM | IC50 (KGN): > 4000 nM | IC50 (KMOE-2): 2810 nM | IC50 (LC-2-ad): > 4000 nM | IC50 (LOX IMVI): > 4000 nM | IC50 (LS-1034): > 4000 nM | IC50 (LU-134-A): > 4000 nM | IC50 (MC116): > 4000 nM | IC50 (MN-60): > 4000 nM | IC50 (MPP-89): > 4000 nM | IC50 (MZ1-PC): 3480 nM | IC50 (MZ2-MEL): > 4000 nM | IC50 (NCI-H23): > 4000 nM | IC50 (NTERA-2-cl-D1): > 4000 nM | IC50 (SH-4): 656 nM | IC50 (SK-MEL-1): > 4000 nM | IC50 (SK-MEL-2): > 4000 nM | IC50 (TE-12): > 4000 nM
